In PMC7126891 (Bioorganic & Medicinal Chemistry, 2013):
Where two headings read alike, the source gives them in different places.

Columns and labels:
SARS-CoV 3CL^pro [1] = biological target: T1, SARS-CoV 3CL^pro (Severe acute respiratory syndrome coronavirus, UniProt P0C6X7); type: biochemical
SARS-CoV 3CL^pro [2] = biological target: T1, SARS-CoV 3CL^pro
SARS-CoV 3CL^pro [3] = biological target: T1, SARS-CoV 3CL^pro; assay: biochemical; type: binding

Row | Compound | Cell-free trans-cleavage inhibition type (SARS-CoV 3CL^pro [1]) | SI (CC50/IC50) (SARS-CoV 3CL^pro [2]) | also measured
1 | Oc1cc(O)c(Oc2cc(O)cc(O)c2Oc2cc(O)cc(O)c2-c2c(O)cc(O)cc2O)c(O)c1 [Compound 7, fucodiphloroethol G] | Competitive (63.5 ± 7.1) | – | SI (CC50/IC50) (SARS-CoV 3CL^pro [2]; African green monkey): >1.1
2 | Oc1cc(O)c2oc3cc(O)c4oc5cc(O)cc(O)c5oc4c3oc2c1 [Compound 4, dioxinodehydroeckol] | – | >1.4 | –
3 | Oc1cc(O)cc(Oc2c(O)cc(O)c3c2Oc2c(O)cc(Oc4c(O)cc(O)cc4O)cc2O3)c1 [Compound 6, 7-phloroeckol] | Competitive (19.3 ± 1.4) | >1.8 | –
4 | Oc1cc(O)cc(Oc2c(O)cc(O)c3c2Oc2c(O)cc(Oc4c(O)cc(Oc5c(O)cc(O)c6c5Oc5c(O)cc(O)cc5O6)cc4O)cc2O3)c1 [Compound 8, dieckol] | Competitive (2.4 ± 0.2) | >2.9 | kon (SARS-CoV 3CL^pro [3]; read-out: association rate constant kon): 7.35e+07 M⁻¹ s⁻¹; koff (SARS-CoV 3CL^pro [3]; read-out: dissociation rate constant koff): 0.000843 s⁻¹
5 | Oc1cc(O)cc(Oc2c(O)cc(O)c3c2Oc2c(O)cc4oc5c(Oc6cc(O)cc(O)c6)c(O)cc(O)c5c4c2O3)c1 [Compound 9, phlorofucofuroeckol A] | Competitive (10.6 ± 1.0) | >1.1 | –
6 | Oc1cc(O)cc(Oc2c(Oc3c(O)cc(O)cc3O)cc(O)c3c2Oc2c(O)cc(O)cc2O3)c1 [Compound 5, 2-phloroeckol] | Competitive (24.0 ± 1.5) | >1.8 | fold increase of inhibitory activity versus 7-phloroeckol (6) (SARS-CoV 3CL^pro [1]): ~3 fold
7 | Oc1cc(O)cc(Oc2c(O)cc(O)c3c2Oc2c(O)cc(O)cc2O3)c1 [Compound 3, eckol] | Competitive (8.2 ± 0.9) | <1 | fold higher activity than triphloretol A (2) (SARS-CoV 3CL^pro [1]): 20 fold
